# Entries after “also recorded” stand apart in the source; their conditions may differ.
# Key:
# [1] = tested on: radiation ulcer; assay: Case 2: treatment of radiation ulcer of lower abdomen after cervical cancer radiation; format: in vivo, patient
# From the text: This patient was subjected to postoperative radiation for the treatment of cervical cancer 18 years before. […] In the Case, the hyperbaric oxygen therapy, zinc sulfate, injectable glutathione, injectable intaserine and Bendazac ointment were applied intermittently in combination. […] Thus, the coating of a therapeutic preparation to be described in Example 1, which pertains to this invention, was initiated.
# [2] = tested on: cardiac muscle; details: known action, cited from earlier work
# [3] = tested on: skin; assay: Primary skin irritation test; format: in vivo; details: 1% in Squalane
# [4] = Blepharoirritation test; format: in vivo; details: 1% in Squalane
# [5] = tested on: skin; assay: Photochallenge (optical challenge) test (Adjuvante Strip method); format: in vivo; details: Induction: 10% in Acetone
# From the text: |Photo- Induction: 10% Acetone
# [6] = tested on: skin; assay: Cumulative skin irritation test; format: in vivo; details: 1% in Squalane
# [7] = cited from earlier work
# [8] = tested on: skin; assay: Patch test; format: in vivo; details: 1% in Squalane
# [9] = tested on: Wistar rats; assay: Chronic toxicity, peroral, rats; format: in vivo; details: forced peroral 6, 60 and 600 mg/kg/day, 26 weeks, female and male Wistar rats
# Experimental: Ubidecarenone was forcedly and perorally administered at 6, 60 and 600 mg/kg/day to female and male Wistar rats continuously over a straight period of 26 weeks.
# [10] = tested on: skin; assay: Challenge test (Adjuvante & Patch Method); format: in vivo; details: Induction: 5% in Acetone
# From the text: |Challenge Induction: 5% Acetone
# [11] = tested on: rabbits; assay: Subacute toxicity, peroral, rabbits; format: in vivo; details: peroral 60 and 600 mg/kg/day, 23 days, male and female rabbits
# Experimental: (§1) Ubidecarenone was perorally administered at 40, 200 and 1,000 mg/kg/day to male and female Wistar rats continuously over a period of 5 weeks and also at 60 and 600 mg/kg/day to male and female rabbits continuously over a period of 23 days.
# [12] = tested on: skin; assay: Phototoxicity test; format: in vivo
# [13] = tested on: radiation ulcers; assay: Treatment of radiation ulcers (general statement); format: in vivo; details: administration to an ulcerated site
# [14] = tested on: skin; assay: Stability and irritation when applied to the skin (general statement)
# [15] = tested on: Wistar rats; assay: Subacute toxicity, peroral, rats; format: in vivo; details: peroral 40, 200 and 1,000 mg/kg/day, 5 weeks, male and female Wistar rats
# Experimental: as §1
# [16] = tested on: radiation ulcers; assay: Case 1: treatment of ulcer in irradiated chest wall after breast cancer; format: in vivo, patient; details: Case 1, after radiotherapy 40 Gy with oily bleomycin and carmofur ointment; peroral zinc sulfate and injection of intaserine to facilitate wound healing
# From the text: Person, The patient underwent a surgery on […] left breast cancer. It recurred in their left chest wall seven years later, resulting in the formation of a carcinomatous ulcer. This carcinomatous ulcer became resistant to the cryosurgery and carcinostatic chemotherapy, leading to need for the radiotherapy. The patient was exposed to a total radiation dose of 40 Gy while using oily bleomycin and carmofur ointment in combination with a view toward enhancing the effects of the radiotherapy. […] However, they fell down accidently at this stage and the wound was traumatized and ulcerated again. Thus, cythocrome c was injected and at the same time, Bendazac ointment was applied. […] At this stage, the coating of a therapeutic preparation to be described in Example 1, which pertains to the present invention, was started.
# [17] = Case 2, prior treatment applied intermittently in combination, with hyperbaric oxygen therapy
structure (smiles),measurement,setting,value
COC1=C(OC)C(=O)C(C/C=C(\C)CC/C=C(\C)CC/C=C(\C)CC/C=C(\C)CC/C=C(\C)CC/C=C(\C)CC/C=C(\C)CC/C=C(\C)CC/C=C(\C)CCC=C(C)C)=C(C)C1=O [Ubidecarenone],change of the ulcer,"[1]; Case 2, oral ubidecarenone therapy, 2 months",no change was observed as to the ulcer
same,ATP-yielding function,[2]; cardiac muscle in an ischemic state,maintain the ATP-yielding function at a high level even when the cardiac muscle is in an ischemic state
same,disorders of ischemic cardiac muscle tissue,[2],"can reduce disorders, which the tissue of ischemic cardiac muscle would develop"
same,drop of heart contraction function,[2],improve the drop of heart contraction function
same,percentage oxygen utilization of cardiac muscle,[2],can improve the percentage oxygen utilization of cardiac muscle
same,"Primary irritation, Conclusion",[3],Little skin irri-
same,"Primary irritation, Results",[3],0.1
same,"Blepharoirritation, Conclusion",[4],Little blepharo-
same,"Photochallenge, Conclusion",[5]; challenge 10% in Acetone,Little photo-
same,"Photochallenge, Results",[5]; challenge 10% in Acetone,0/5
same,"Photochallenge, Conclusion",[5]; challenge conc. 0.5 in Acetone,Little photo-
same,"Photochallenge, Results",[5]; challenge conc. 0.5 in Acetone,0/5
same,"Photochallenge, Conclusion",[5]; challenge conc. 1 in Acetone,Little photo-
same,"Photochallenge, Results",[5]; challenge conc. 1 in Acetone,0/5
same,"Photochallenge, Conclusion",[5]; challenge conc. 2 in Acetone,Little photo-
same,"Photochallenge, Results",[5]; challenge conc. 2 in Acetone,0/5
same,"Photochallenge, Conclusion",[5]; challenge conc. 5 in Acetone,Little photo-
same,"Photochallenge, Results",[5]; challenge conc. 5 in Acetone,0/5
same,"Cumulative skin irritation, Conclusion",[6],Little skin irri-
same,"Cumulative skin irritation, Results",[6],0.3
same,solubility in oil,[7]; oil,oil-soluble
same,solubility in water or methanol,[7]; water or methanol,hardly soluble
same,"Patch test, Conclusion",[8],Little skin irri-
same,"Patch test, Results",[8],0/54
same,"general appearance, blood, urine test and morphological observation (visual and histological) vs control",[9],no differences were observed
same,"Challenge, Conclusion",[10]; challenge 1% in Acetone,Little challenge
same,"Challenge, Results",[10]; challenge 1% in Acetone,0/10
same,"Challenge, Conclusion",[10]; challenge 5% in Acetone,Little challenge
same,"Challenge, Results",[10]; challenge 5% in Acetone,0/10
same,"general appearance, blood, urine test and morphological observation (visual and histological) vs control",[11],No differences were observed
same,"Phototoxicity, Conclusion",[12]; 1% in Squalane,Little phototoxicity
same,"Phototoxicity, Conclusion",[12]; 10% in Squalane,Little phototoxicity
same,curing of radiation ulcers,[13],excellent curing results; also recorded: radiation ulcers can be successfully cured
same,irritation to the skin,[14],little irritation to the skin
same,stability when applied to the skin,[14],good stability
same,"general appearance, blood, urine test and morphological observation (visual and histological) vs control",[15],No differences were observed
N[C@@H](CCC(=O)N[C@@H](CS)C(=O)NCC(=O)O)C(=O)O [glutathione],change of the ulcer,[1]; [17],the ulcer was not improved
O=S(=O)([O-])[O-].[Zn+2] [zinc sulfate],change of the ulcer,[1]; [17],the ulcer was not improved
same,ulcer outcome,[16],the ulcer became cancer-free and an eschar was produced

# — patent US4617187A, “Therapeutic method for treating radiation ulcers” (Eisai Co., Ltd., priority 1983, dated 1986)
